The results in this text go back to US20110177026A1 (priority 2005, published 2011).

Format in all cases: cell-based
In experiment [1] the test system is BVDV cytopathic strain NADL.
Experiment [2] concerns Vesicular stomatitis virus (VSV) Indiana serotype.
The subject of experiment [3] is BVDV strain NADL. The experiment in a line: microbe, parasite or virus in culture.
The mark [4] stands for this setting: VSV-infected cells at MOI=0.01, concentration of 1 mM.
Setting [5] is: cells infected with VSV at MOI>1.

Like-named read-outs stand apart in the source and are kept apart here.

`OCCN1CC(O)C(O)C(O)C1CO` (stereo not drawn) [miglitol, 3,4,5-piperidinetriol, 1-(2-hydroxyethyl)-2-(hydroxymethyl)-, [2R-(2α, 3β,4α,5β)]]: the results for the antiviral activity entry in experiment [1], in experiment [2] (setting [4]) and in experiment [2] (setting [5]) were “only the positive control CTS exhibited antiviral activity”, “exhibited antiviral activity” and “none”, respectively. The “inhibition of BVDV replication” value in experiment [3] is given as “potent antiviral agents that inhibit BVDV replication”. The EC50 in experiment [3] (Bovine viral diarrhea virus isolates and strains, MDBK, read-out: Dm) came to 221 µM.

In the case of `CC1OC(OC2C(CO)OC(OC3C(CO)OC(O)C(O)C3O)C(O)C2O)C(O)C(O)C1NC1C=C(CO)C(O)C(O)C1O` [acarbose, O-4,6-dideoxy-4-[[(1S,4R,5S,6S)-4,5,6-trihydroxy-3-(hydroxymethyl)-2-cyclohexen-1-yl]amino]-α-D-glucopyranosyl-(1→4)-O-α-D-glucopyranosyl-(1→4)-D-glucose], the antiviral activity entry is “only the positive control CTS exhibited antiviral activity” in experiment [1], “exhibited antiviral activity” in experiment [2] (setting [4]) and “none” in experiment [2] (setting [5]). The “inhibition of BVDV replication” value in experiment [3] is “potent antiviral agents that inhibit BVDV replication”.

As to `O[C@H]1[C@H](O)[C@@H](O)CN2CC[C@H](O)[C@H]12` [CTS, Castanospermine], the antiviral activity result in experiment [1] is given as “exhibited antiviral activity”; in experiment [2] (setting [4]) it was “exhibited antiviral activity”; in experiment [2] (setting [5]) it was “none”.
